Data reported in patent US20150190369A1, “QUERCETIN-3-GLUCOSIDE AND USES THEREOF” (priority 2012, published 2015).
Entries after “also recorded” stand apart in the source; their conditions may differ.

Tested on: LDLR
Assay: Semi-quantitative immunoblotting for LDLR protein in Huh7 cell lysates
Format: cell-based, human
Experimental: At passage, Huh7 cells were routinely seeded at sub-confluence (˜10^6 cells/10-cm dish) in Dulbecco's modified Eagle's medium (DMEM) containing 10% fetal bovine serum (FBS) or LPDS (for experiments) and 50 μg/ml gentamycin. They were incubated overnight at 37° C., in a humidified 5% CO2-95% air atmosphere. Cells were treated or not with Q3G at defined concentrations and for defined lengths of time. Media were collected and centrifuged at 200 g for 5 min to sediment suspended cells; supernatants were collected and supplemented with 0.33 volumes of a 3×-concentrated PIC. Cell monolayers were rinsed with ice-cold phosphate-buffered saline (PBS); they were overlaid with […] the RIPA lysis buffer (50 mM Tris-HCl, pH 8, 150 mM NaCl, 1% NP-40, 0.5% Na-deoxycholate and 0.1% SDS) supplemented with 1× PIC. After 20 min in an ice bath, the lysates were centrifuged at 14,000 g and 4° C. for 20 min, and supernatants were collected. Conditioned media and lysates were stored at −20° C. until analysis.
Cell lysates were fractionated by SDS-PAGE and electrophoretically transferred onto a polyvinylidene fluoride membrane. The membrane was incubated with a goat antihuman LDLR, rabbit anti-PCSK9, or rabbit anti-SREBP-2 polyclonal antibody at 1:1000, 1:1500, and 1:200 dilutions, respectively, and then with a HRP-conjugated heterospecific secondary antibody against the primary Igs at a 1:2000 dilution. It was probed for HRP reaction using the Western Lightning Chemiluminescence Reagent Plus a chemiluminescence-based revelation kit. The signal was captured on X-ray film and immunoreactive bands analyzed by densitometry on a Syngene's ChemiGenius^2XE Bio Imaging System (Cambridge, Mass.) within the dynamic range of the instrument. The membrane was stripped and reprobed with the anti-β-actin monoclonal primary antibody at 1:20,000 dilution and HRP-conjugated rabbit anti-mouse IgG secondary antibody at a 1:5000 dilution. The densitometric values of β-actin bands were using for normalization of experimental samples.
Huh7 cells, hepatocyte derived cellular carcinoma cells, were incubated for 24 h in medium containing 10% lipoprotein-depleted serum (LPDS) and 0 to 10 μM Q3G. The level of LDLR mRNA was measured by quantitative real-time RT-PCR; that of the LDLR protein by semi-quantitative immunoblotting. Exposure to Q3G increased the intracellular content of LDLR mRNA in a concentration-dependent manner; the increase reached a 2× maximum at 2 μM (P<0.01, relative to no Q3G) (FIG. 3A). The content of the corresponding protein followed a similar pattern, but reached a 4× maximum at 4 μM (P<0.005) (FIG. 3B).
The kinetics of cellular accumulation of LDLR and PCSK9 at 2 μM Q3G was also examined: PCSK9 accumulation in the cells began after a 3-h lag; that of LDLR after 6-h lag (FIG. 6).
Statins induce expression of LDLR and PCSK9. […] We examined whether, at a 5 μM concentration of Q3G, simvastatin at 0.2 and 1 μM could further up regulate LDLR expression in Huh7 cells; and, inversely, whether the flavonol can reduce statin-stimulated PCSK9 secretion secreted by Huh7 cells.

**Q.** Which results are given for `O=c1c(O[C@@H]2O[C@H](CO)[C@@H](O)[C@H](O)[C@H]2O)c(-c2ccc(O)c(O)c2)oc2cc(O)cc(O)c12` [Q3G, quercetin-3-O-β-D-glucoside]?
**A.** lag before LDLR accumulation in the cells (Huh7, 2 μM Q3G, time course): 6 h; increase of LDLR protein content (maximum) (Huh7, 24 h, 10% LPDS, 0 to 10 μM Q3G, maximum at 4 μM): 4 ×; level of cellular LDLR (Huh7, 24 h, co-treatment 5 μM Q3G with simvastatin 0.2 and 1 μM): increased cellular LDLR to the level induced by the flavonol alone; effect of high concentrations on stimulation of LDLR expression (Huh7, 24 h, high Q3G concentrations (>20 NM), concentration-dependent): attenuated; also recorded: attenuation
